Laboratory results reported in patent US8110543B2, “Anti-invasive and anti-angiogenic compositions” (Angstrom Pharmaceuticals, Inc., priority 1997, dated 2012).

Experiments:
[1] = test system: Mat B-III tumors; assay: Rat syngeneic Mat B-III breast cancer model; format: in vivo; settings: comparative analysis of related peptides
Method: The effects of the compounds are tested on tumor progression in a rat syngeneic model of breast cancer (Xing and Rabbani, 1996). Mat BIII rat breast tumor cells (1×10^6 cells in PBS, 0.1 mL per rat) are inoculated into the mammary fat pads of female Fisher rats. The test compound is dissolved in PBS (200 mM stock), sterile filtered and dispensed in vivo at a dose of up to about 100 mg/kg/day) using a 14-day Alza osmotic mini-pump implanted intraperitoneally at the time of inoculation. Control animals receive vehicle (PBS) alone. Animals are euthanized at day 14 and examined for metastasis in the spleen, lungs, liver, kidney and lymph nodes. In addition, the primary tumors are excised, quantitated, and prepared for immunohistochemistry.
The rat syngeneic breast cancer system (Xing and Rabbani, 1996) employs Mat BIIIrat breast cancer cells. When Mat B-III cells (1×10^6 cells) are inoculated into the mammary fat pad of female Fisher rats, they form large tumors which metastasize to regional lymph nodes (LNs) and other distal sites within 14-20 days.
Å6 was initially delivered prophylactically (infusion starting on the day of tumor inoculation) using an Alzet mini-pump that delivered 75 mg/kg/day. […] Metastasis was quantitated by counting the number of macroscopic foci without regard for their size.
Estrogen receptor-positive Mat B-III tumors were used to test combination treatment with Å6 (75 mg/kg/day) and TAM (3 mg/kg/day). In contrast to previous studies, the Mat B-III tumors (inoculated in the mammary fat pad) were staged to 40-50 mm^3 prior to the initiation of treatment. Treatment was continued for 8 days during which time primary tumor growth was measured using calipers (FIG. 14).

[2] = test system: 3LL cells; assay: Tumor angiogenesis (microvessel density) in 3LL model; format: in vivo, Mice; settings: 100-250 mg/kg/day; compared to controls
Method: Angiogenesis is measured by determining microvessel density using immunostaining for CD31 (also known as platelet-endothelial cell adhesion molecule or PECAM). Results are reported as the average microvessel density of 5 fields each from 5 different sections (Penfold et al., 1996). Typically, the whole tumor is excised, sectioned and the sections examined histologically for microvessel density using appropriate stains or labels for other markers.
Angiogenesis induced by tumor growth and metastasis in vivo is examined in the models systems described above. Mice injected with 3LL cells are treated either with peptide or with vehicle and are sacrificed at various time points. Angiogenesis is assessed by determining microvessel density (MVD) using an antibody specific for microvascular endothelium or other markers of growing blood vessels, such as PECAM (CD31). Such an antibody is employed in conventional immunohistological methods to immunostain tissue sections as described by Penfold et al., supra. A large number of such antibodies is commercially available, for example the JC70 mAb. The MVD are correlated with other measures of tumor behavior including lymph node status and primary tumor size and rate of growth. In humans as reported by Penfold et al., supra, tumor MVD correlates with lymph node metastasis and is independent of tumor size, growth rate or type of histological differentiation.
The compounds are given i.v., i.p., or by osmotic minipump Typical dosages are 100-250 mg/kg/day. At various time points, two animals are sacrificed, and the tumor tissue and surrounding tissue is prepared for histological examination. Results are reported as the average microvessel density of 5 fields each from 5 different sections. The following seven compounds are tested: Ac-[…]-Am (SEQ ID NO:2), Ac-[…]-Am (SEQ ID NO: 6) (disubstitution variant at positions 3 and 4), Ac-[…]-Am (SEQ ID NO: 7) (disubstitution variant at positions 7 and 8), Ac-[…]-Am (SEQ ID NO: 8) (substitution variant at position 1), Ac-PSSPPEE-Am (SEQ ID NO: 4) (deletion variant, position 1 of SEQ ID NO:2 deleted), Ac-KPSSPPE-Am (SEQ ID NO: 5) (deletion variant, position 8 of SEQ ID NO:2 deleted), and Ac-[…]-Am (SEQ ID NO:1).

[3] = test system: PC-3 cells; assay: PC-3 CAT metastasis model; format: in vivo, mice; settings: minipump 100 mg/kg/day, 14 or 21 days
Method: The compounds of this invention are also tested for inhibition of late metastasis using an experimental metastasis model (Crowley et al., 1993). Late metastasis involves the steps of attachment and extravasation of tumor cells, local invasion, seeding, proliferation and angiogenesis.
Human prostatic carcinoma cells (PC-3) transfected with a reporter gene, preferably the green fluorescent protein (GFP) gene, but as an alternative with a gene encoding the enzymes chioramphenicol acetyl-transferase (CAT), luciferase or LacZ. This permits utilization of either of these markers (fluorescence detection of GFP or histochemical colorimetric detection of enzymatic activity) for following the fate of these cells. Cells are injected, preferably iv, and metastases identified after about 14 days, particularly in the lungs but also in regional lymph nodes, femurs and brain. This mimics the organ tropism of naturally occurring metastases of prostate cancer. For example, GFP-expressing PC-3 cells (1×10^6 cells per mouse) are injected iv into the tail veins of nude (nu/nu) mice. Animals are also implanted with mini-pumps (sub-dermally on the back) dispensing either the test compound (at least about 100 mg/kg/day) or vehicle. The animals are euthanized after 14 days and their organs prepared for histological examination. Single metastatic cells and foci are visualized and quantitated by fluorescence microscopy or light microscopic histochemistry or by grinding the tissue and quantitative colorimetric assay of the detectable label.
(§1) In addition to Å6, other related peptide compounds described above are tested for efficacy in vivo in the 3LL model (as provided above) as well as the PC-3 model. PC-3 cells transfected with the gene encoding the enzyme chloramphenicol acetyl-transferase (CAT) are inoculated into mice i.v. at doses of 1×10^6 cells per mouse. These mice are implanted with a minipump, as above, which dispenses 100 mg/kg/day of the peptide or vehicle over a period of 14 or 21 days. At termination of treatment, the animals are euthanized and the tumor marker probe is assayed in regional lymph nodes, femurs, lungs, and brain.

[4] = test system: 3LL; assay: 3LL metastasis model, related peptides; design: species or system mice; settings: mouse, in vivo
Description: This model has been utilized by a number of investigators. See, for example, Gorelik, E. et al., J. Nat'l. Canc. Inst. 65:1257-1264 (1980); Gorelik, E. et al., Rec. Results Canc Res. 75:20-28 (1980); Isakov, N. et al., Invasion Metas. 2:12-32 (1982); Talmadge J. E. et al., J. Nat'l. Canc. Inst. 69:975-980 (1982); Hilgard, P. et al, Br. J. Cancer 35:78-86 (1977)). Test mice are male C57BL/6 mice, 2-3 months old. Following sc, im, or intra-footpad implantation, this tumor produces metastases, preferentially in the lungs. With some lines of the tumor, the primary tumor exerts anti-metastatic effects and must first be excised before study of the metastatic phase (see also U.S. Pat. No. 5,639,725).
Single-cell suspensions are prepared from solid tumors by treating minced tumor tissue with a solution of 0.3% trypsin. Cells are washed 3 times with PBS (pH 7.4) and suspended in PBS. Viability of the 3LL cells prepared in this way is generally about 95-99% (by trypan blue dye exclusion). Viable tumor cells (3×10^4-5×10^6) suspended in 0.05 ml PBS are injected subcutaneously, either in the dorsal region or into one hind foot pad of C57BL/6 mice. Visible tumors appear after 3-4 days after dorsal sc injection of 10^6 cells. The day of tumor appearance and the diameters of established tumors are measured by caliper every two days.
The treatment is given as one or two doses of peptide or derivative, per week. In another embodiment, the peptide is delivered by osmotic minipump.
Lungs are removed and weighed. Lungs are fixed in Bouin's solution and the number of visible metastases is recorded. The diameters of the metastases are also measured using a binocular stereoscope equipped with a micrometer-containing ocular under 8× magnification. On the basis of the recorded diameters, it is possible to calculate the volume of each metastasis. To determine the total volume of metastases per lung, the mean number of visible metastases is multiplied by the mean volume of metastases. To further determine metastatic growth, it is possible to measure incorporation of ^125IdUrd into lung cells (Thakur, M. L. et al., J. Lab. Clin. Med. 89:217-228 (1977). Ten days following tumor amputation, 25 μg of fluorodeoxyuridine is inoculated into the peritoneums of tumor-bearing (and, if used, tumor-resected mice). After 30 min, mice are given 1 μCi of ^125IdUrd (iododeoxyuridine). One day later, lungs and spleens are removed and weighed, and a degree of ^125IdUrd incorporation is measured using a gamma counter.
as §1

[5] = test system: human prostate cancer line PC-3; assay: Matrigel invasion assay, PC-3 cells; format: cell-based; settings: 5 μM (FIG. 1, FIG. 2)
Method: Several peptides were tested for anti-invasive capacity in a Matrigel® invasion assay system as indicated above (Kleinman et al., supra; Parish et al., supra). Several invasive human tumor lines (PC-3, MDA-MB-231) and non-human tumors (3LL, Mat B-III) were examined. The rat breast cancer line Mat B III and the human prostate cancer line PC-3 were initially used.
Tumor cells (5×10^5/mL, in a volume of 200 μL) in serum-free RPMI 1640 medium were added to a disposable transwell invasion chamber coated with Matrigel® (Becton Dickinson, Lincoln Park, N.J.). The invasion chambers were placed in 24-well tissue culture plates filled with serum-free RPMI-1640 and the plates were placed in an atmosphere of 5% CO2 in humidified air at 37° C. for 48-72 hours. The chambers were then removed, inverted, and the cells which had invaded (and now appeared on the bottom face of the invasion chamber) were fixed and stained using Diff-Quick® (Scientific Products). Cells were counted in 10 different fields on each filter and an average obtained.

| Substance | number of metastases in the spleen, lungs, liver, kidney and lymph nodes [1] | size of the primary tumor [1] | number of microvessels in the region of the primary tumor [2] | metastasis, PC-3 model [3] | metastasis, 3LL model [4] | in vitro invasion of PC-3 cells in a Matrigel system [5] |
| --- | --- | --- | --- | --- | --- | --- |
| Ac-KPSSPPDD-Am: disubstitution variant at positions 7 and 8 (SEQ ID NO: 7) (Ac-KPSSPPDD-NH2) | significant reduction | significant reduction | significant reduction | markedly inhibited | markedly inhibited |  |
| Ac-KPSSPPEELK-Am: capped counterpart of KPSSPPEELK (SEQ ID NO: 1) (Ac-KPSSPPEELK-NH2) [reference compound] | fail to cause a significant change | fail to cause a significant change | no significant effect | no reduction | no reduction |  |
| Ac-KPTTPPEE-Am: disubstitution variant at positions 3 and 4 (SEQ ID NO: 6) (Ac-KPTTPPEE-NH2) | significant reduction | significant reduction | significant reduction | markedly inhibited | markedly inhibited |  |
| Ac-Lys-Pro-Ser-Ser-Pro-Pro-Glu-Am (Ac-KPSSPPE-NH2) [Ac-KPSSPPE-Am] | fail to cause a significant change | fail to cause a significant change | no significant effect | no reduction | no reduction |  |
| Ac-Pro-Ser-Ser-Pro-Pro-Glu-Glu-Am (Ac-PSSPPEE-NH2) [Ac-PSSPPEE-Am] | fail to cause a significant change | fail to cause a significant change | no significant effect | no reduction | no reduction |  |
| Ac-RPSSPPEE-Am: substitution variant at position 1 (SEQ ID NO: 8) (Ac-RPSSPPEE-NH2) | significant reduction | significant reduction | significant reduction | markedly inhibited | markedly inhibited |  |
| KPSSPPEELK [Lys-Pro-Ser-Ser-Pro-Pro-Glu-Glu-Leu-Lys, reference compound] |  |  |  |  |  | inactive |
